Assay results from US6774220B1, “Compounds having lectinic properties and their biological applications” (Association pour le Développement de la Biothérapie …, priority 1995, dated 2004).
Where two headings read alike, the source gives them in different places. Marks after values point to notes of the source that are not given here.

What was measured:
[1] = tested on: murine sarcolectin; assay: Action of simple sugars on the agglutination of cells by sarcolectin; type: cell-based, Swiss mice; details: in the presence of 2 agglutinating units of murine sarcolectin; H9 cells
Description: A wide variety of cells originating either from rodents or from primates was tested. Agglutination is obtained by suspending the cells in an MEM medium in the absence of serum. The test may be carried out in two ways, either in the presence of a sarcolectin dilution range in a base 2 geometric progression, by identifying the concentration at which 50% of the cells are agglutinated, or by identifying the affinity of the various sugars for the cell receptors.
In the example shown, murine sarcolectin originating from the ascitic fluid of Swiss mice grafted with Crocker TG180 sarcoma contains 32 units agglutinating the H9 cells which originate from a T lymphoma, fixed by 10% formaldehyde.
The table below illustrates the affinity of the receptors for the various sugars in the presence of 2 agglutinating units.

[2] = tested on: encephalomyocarditis virus (EMC); assay: Protection of IFN against the encephalomyocarditis virus in Swiss mice, with SCL inhibiting sugars; type: in vivo; details: EMC virus i.p.
Description: The model used is the encephalomyocarditis virus (EMC) which kills mice in practically all cases after rather varying but relatively short incubation periods.
Male mice (average weight: […], aged 8 to 10 weeks) were injected i.p. with sodium galacturonate, glucosamine and N-acetylneuraminic acid (5 to 10% solutions containing 100 mM sugar). 24 hours afterwards, one hundred lethal doses (50%) of EMC virus are injected by the same route. After one hour, murine interferon is injected (in a dose of 20,000 units in 0.5 ml). Table 3 gives the number of animals surviving out of the total tested, the percentage and statistical significance.

[3] = tested on: TG-180 tumour cells; assay: Antitumour action on grafted TG-180 ascitic tumour; details: for anti-tumour effect (in words): TG-180 graft in mice
Description: In order to test the antitumour capacity of SCL inhibiting sugars, TG-180 tumour cells originating from a tumour resistant to chemical metabolic inhibitors was grafted. In a concentration of 3×10^6 cells injected i.p. into 20 gr Swiss mice, an ascitic tumour is obtained which is detectable in 10 days and kills practically 100% of the animals in 21-25 days.
In parallel series, the various groups of animals were treated 3 days after inoculation, either with a specific sugar (glucosamine, lactose, galacturonate, N.A.N.A., neuramine-lactose) in a 5 to 10% solution, the sugar concentration being 100 mM, or with the same treatment in association with an injection of immuno-stimulant (extract of corynebacterium parvum, Merieux, France), in a dose of 200 g/mouse, or interferon, or both.
4 groups of mice per experiment were used.
They are assessed by the percentage of tumours that appeared on the 10th day, the mean survival time of the animals (MST) in. days, and the final survival (as a percentage).

[4] = tested on: T (lympho) cells; assay: Stimulation over 24 hours of the synthesis of DNA in T (lympho) cells; type: cell-based
Description: XI Stimulation over 24 hours of the synthesis of DNA in T (lympho) cells

[5] = tested on: action of interferon (antiviral state against vesicular stomatitis virus) in mouse L cells; type: cell-based
[6] = single agent (+MEM, or IFN in reference group)
[7] = IL2 (100 u) +SCL + inhibitor (NANA 0.75 mmol.; oligo 41-55 3 μγ/ml)

Molecule: OC[C@H]1OC(O)[C@H](O)[C@@H](O)[C@H]1O (stereo partly drawn) [D galactose]
- affinity [1]: 0.28 mM

Molecule: N[C@H]1C(O)O[C@H](CO)[C@@H](O)[C@@H]1O (stereo partly drawn) [Glucosamine, glucosamine]
- number of animals surviving out of the total number tested [2, 6]: 1/30
- percentage surviving [2, 6]: 3%
- number of animals surviving out of the total number tested ([2]; sugar +IFN (20,000 units)): 14/45b
- percentage surviving ([2]; sugar +IFN (20,000 units)): 31%
- Final survival (%) ([3]; +CP): (53) %
- Final survival, Number ([3]; +CP): 40
- MST (mean survival time) ([3]; +CP): 67 ± 8 days
- Tumours on 10th day (%) ([3]; +CP): 34%
- Tumours on 10th day, number ([3]; +CP): 26
- Final survival (%) ([3]; +CP +IFN): (58) %
- Final survival, Number ([3]; +CP +IFN): 35
- MST (mean survival time) ([3]; +CP +IFN): 70 ± 9 days
- Tumours on 10th day (%) ([3]; +CP +IFN): 28%
- Tumours on 10th day, number ([3]; +CP +IFN): 17
- Final survival (%) ([3]; +CP, listed as glucosamine): 53%
- Final survival (%) ([3]; +IFN): (17) %
- Final survival, Number ([3]; +IFN): 8
- MST (mean survival time) ([3]; +IFN): 39 ± 9 days
- Tumours on 10th day (%) ([3]; +IFN): 13%
- Tumours on 10th day, number ([3]; +IFN): 6
- Final survival (%) ([3]; agent alone): (6) %
- Final survival, Number ([3]; agent alone): 1
- MST (mean survival time) ([3]; agent alone): 28 ± 6 days
- Tumours on 10th day (%) ([3]; agent alone): 20%
- Tumours on 10th day, number ([3]; agent alone): 3

Molecule: CC(=O)N[C@H]1[C@H]([C@H](O)[C@H](O)CO)OC(O)(C(=O)O)C[C@@H]1O (stereo partly drawn) [N.A.N.A, N-acetylneuraminic acid]
- affinity [1]: 0.0075 mM
- number of animals surviving out of the total number tested [2, 6]: 0/15
- percentage surviving [2, 6]: 0%
- number of animals surviving out of the total number tested ([2]; sugar +IFN (20,000 units)): 8/15c
- percentage surviving ([2]; sugar +IFN (20,000 units)): 53%
- effect on the stimulation of DNA synthesis by SCL (in words) ([4]; 24 hours): inhibited
- synthesis of DNA, EXP. N° 1 [4, 7]: 4,657 ± 214.78
- synthesis of DNA, EXP. N° 2 [4, 7]: 27,133 ± 1771
- Final survival (%) ([3]; +CP): (53) %
- Final survival, Number ([3]; +CP): 8
- MST (mean survival time) ([3]; +CP): 69 ± 12 days
- Tumours on 10th day (%) ([3]; +CP): 40%
- Tumours on 10th day, number ([3]; +CP): 6
- Final survival (%) ([3]; +CP +IFN): (36) %
- Final survival, Number ([3]; +CP +IFN): 11
- MST (mean survival time) ([3]; +CP +IFN): 70 ± 12 days
- Tumours on 10th day (%) ([3]; +CP +IFN): 43%
- Tumours on 10th day, number ([3]; +CP +IFN): 13
- Final survival (%) ([3]; +IFN): (13) %
- Final survival, Number ([3]; +IFN): 4
- MST (mean survival time) ([3]; +IFN): 39 ± 12 days
- Tumours on 10th day (%) ([3]; +IFN): 16%
- Tumours on 10th day, number ([3]; +IFN): 5
- Final survival (%) ([3]; agent alone): (0) %
- Final survival, Number ([3]; agent alone): 0
- MST (mean survival time) ([3]; agent alone): 24 ± 6 days
- Tumours on 10th day (%) ([3]; agent alone): 34%
- Tumours on 10th day, number ([3]; agent alone): 9

Molecule: O=C[C@H](O)[C@@H](O)[C@@H](O)[C@H](O)C(=O)[O-].[Na+] [Na galacturonate, sodium galacturonate]
- number of animals surviving out of the total number tested [2, 6]: 6/75
- percentage surviving [2, 6]: 8%
- number of animals surviving out of the total number tested ([2]; sugar +IFN (20,000 units)): 22/90a
- percentage surviving ([2]; sugar +IFN (20,000 units)): 24%
- Final survival (%) ([3]; +CP): (20) %
- Final survival, Number ([3]; +CP): 3
- MST (mean survival time) ([3]; +CP): 42 ± 16 days
- Tumours on 10th day (%) ([3]; +CP): 13%
- Tumours on 10th day, number ([3]; +CP): 2
- Final survival (%) ([3]; +CP +IFN): (73) %
- Final survival, Number ([3]; +CP +IFN): 11
- MST (mean survival time) ([3]; +CP +IFN): 81 ± 17 days
- Tumours on 10th day (%) ([3]; +CP +IFN): 6%
- Tumours on 10th day, number ([3]; +CP +IFN): 1
- Final survival (%) ([3]; +IFN): (13) %
- Final survival, Number ([3]; +IFN): 2
- MST (mean survival time) ([3]; +IFN): 34 ± 15 days
- Tumours on 10th day (%) ([3]; +IFN): 40%
- Tumours on 10th day, number ([3]; +IFN): 6
- Final survival (%) ([3]; agent alone): (6) %
- Final survival, Number ([3]; agent alone): 1
- MST (mean survival time) ([3]; agent alone): 31 ± 10 days
- Tumours on 10th day (%) ([3]; agent alone): 20%
- Tumours on 10th day, number ([3]; agent alone): 3

Molecule: O=C([O-])C1OC(O)C(O)C(O)C1O.[Na+] (stereo not drawn) [Na glucuronate, reference compound]
- number of animals surviving out of the total number tested [2, 6]: 6/45
- percentage surviving [2, 6]: 13%
- number of animals surviving out of the total number tested ([2]; sugar +IFN (20,000 units)): 5/45
- percentage surviving ([2]; sugar +IFN (20,000 units)): 11%
- anti-tumour effect (in words) [3]: comparable anti-tumour effects

Molecule: CC(C)(N)C(=O)O [alphaaminoiso., alpha aminoisobutyric acid]
- Final survival (%) ([3]; +CP): (43) %
- Final survival, Number ([3]; +CP): 13
- MST (mean survival time) ([3]; +CP): 66 ± 13 days
- Tumours on 10th day (%) ([3]; +CP): 46%
- Tumours on 10th day, number ([3]; +CP): 14
- Final survival (%) ([3]; +CP +IFN): (47) %
- Final survival, Number ([3]; +CP +IFN): 14
- MST (mean survival time) ([3]; +CP +IFN): 64 ± 13 days
- Tumours on 10th day (%) ([3]; +CP +IFN): 4d %
- Tumours on 10th day, number ([3]; +CP +IFN): 12
- Final survival (%) ([3]; +IFN): (13) %
- Final survival, Number ([3]; +IFN): 4
- MST (mean survival time) ([3]; +IFN): 31 ± 10 days
- Tumours on 10th day (%) ([3]; +IFN): 50%
- Tumours on 10th day, number ([3]; +IFN): 15
- anti-tumour effect (in words) [3]: inhibit oncogenesis significantly
- Final survival (%) ([3]; agent alone): (7) %
- Final survival, Number ([3]; agent alone): 2
- MST (mean survival time) ([3]; agent alone): 31 ± 7 days
- Tumours on 10th day (%) ([3]; agent alone): 20%
- Tumours on 10th day, number ([3]; agent alone): 6

Molecule: OC[C@H]1O[C@@H](O[C@H]2[C@H](O)[C@@H](O)[C@@H](O)O[C@@H]2CO)[C@H](O)[C@@H](O)[C@H]1O [α lactose]
- affinity [1]: 0.125 mM

Molecule: OC[C@H]1O[C@@H](O[C@H]2[C@H](O)[C@@H](O)[C@H](O)O[C@@H]2CO)[C@H](O)[C@@H](O)[C@H]1O [β lactose]
- affinity [1]: 0.25 mM

Molecule: oligo 41-55: peptide SEQ ID NO: 5, position 41 to 55 in SEQ ID NO: 1 (GLGASRPRVAVRSAY; listed as Homo sapiens)
- effect on the stimulation of DNA synthesis by SCL (in words) ([4]; 24 hours): inhibited
- synthesis of DNA, EXP. N° 1 [4, 7]: 4,674 ± 832.52
- synthesis of DNA, EXP. N° 2 [4, 7]: 23,184 ± 2494

B1: recombinant SCL: SCL expressed in mouse L cells transfected with plasmid containing the cloned gene, hexamethasone-inducible promoter (protein)
chain: SIHFSSPVFTSRSAAFSGRGAQVRLSSARPGGLGSSSLYGLGASRPRVAVRSAYGGPVGAGIREVTINQSLLAPLRLGADPFSQRVRQEESEQIKTLNNKFASFIDKVRFLEQQNKLLETKWTLLQEQKSAKSSRLPDIFEAQIAGLRGQLEAMQVDGGRLEQGLRTMQDVVEDFKNKYEDEINRRTAAENEFVVLKKDVDAAYMSKVELEAKVDALNDEINFLRTLNETELTELQSQISDTSVVLSMDNSRSLDLDGIIAEVKAQYEEMAKCSRAEAEAWYQTKFETLQAQAGKHGDDLRNTRNEISEMNRAIQRLQAEIDNIKNQRAKLEAAIAEAEERGELALKDARAKQEELEAALQRAKQDMARQLREYQELMSVKLALDIEIATYRKLLEGEESRLAGDGVGAANISVMNSTGGSSSGGGIGLTLGGTMGSNALSFSSSAGPGLLKAYSIRTASASRRSTRD
- limit dilution of SCL at which the action of the interferon was completely blocked ([5]; 200 IU of interferon for 5 hours, then SCL in base 2 dilutions): 1/32
- IFN titer ([5]; A: IFN + SCL induced by hexamethasone): <2 U
- IFN titer ([5]; A: IFN + SCL non-induced): >5120 U
- SCL titer (concentration of SCL which inhibits by 100% the antiviral state) ([5]; B: IFN 200 U + SCL): 32 U. 50%*
- effect on antiviral state (in words) ([5]; interferon 5 hours, then SCL 18 hours): blocks the state of the antiviral effect

B2: SCL: SCL excreted in the H-1 medium by PBMC over 24 hours maintained without serum (protein)
chain: B1 chain
- effect on synthesis of DNA (in words) ([4]; 24 hours): stimulates the synthesis of DNA
- synthesis of DNA, EXP. N° 1 ([4]; IL2 (100 u) +SCL, 24 hours): 6,167 ± 483.66
- synthesis of DNA, EXP. N° 2 ([4]; IL2 (100 u) +SCL, 24 hours): 35,438 ± 10.370
